Patent US8604194B2, “Salts of O-desmethyl-venlafaxine” (Lek Pharmaceuticals D.D., priority 2008, dated 2013)

Assay: Solubility of desvenlafaxine salts in water at 23° C.
Conditions: for Solubility of desvenlafaxine salts in water: 23° C.

Structure (SMILES) | Solubility of desvenlafaxine salts in water [mg/mL] | solubility in water (result in words) (refers to Table 1)
CN(C)CC(c1ccc(O)cc1)C1(O)CCCCC1.O.O=C(O)C1OC(O)C(O)C(O)C1O [glucuronate crystalline, desvenlafaxine D-glucuronate monohydrate] | 299 | 
CN(C)CC(c1ccc(O)cc1)C1(O)CCCCC1.O=C(O)C1OC(O)C(O)C(O)C1O [glucuronate amorphous, desvenlafaxine D-glucuronate] | 338 | 
CN(C)CC(c1ccc(O)cc1)C1(O)CCCCC1.O=C[C@H](O)[C@@H](O)[C@H](O)[C@H](O)C(=O)O (stereo not drawn) [O-desmethyl-venlafaxine glucuronate] |  | good solubility in water
